Reference: US20220411388A1, “SUBSTITUTED IMIDAZOLE CARBOXAMIDES AND THEIR USE IN THE TREATMENT OF MEDICAL DISORDERS” (Bial - R&D Investments, S.A., priority 2019, published 2022)
Values after ≈ are worked out from the molar mass of the structure shown.

What was measured:
[1] = Compound solubility in water; type: physicochemical
[2] = target: T1, acid ceramidase (hACR) (Homo sapiens, UniProt Q13510); test: Acid ceramidase inhibition, biochemical fluorescent assay with cell lysates overexpressing acid ceramidase (substrate Rbm14-12); conditions: cell lysate, 1 hr preincubation at RT, pH 4.5, Rbm14-12 6.3 μM; read-out: IC50 hACR
T1 construct: expressed in transfected cells
T1 sequence (Q13510 22-395): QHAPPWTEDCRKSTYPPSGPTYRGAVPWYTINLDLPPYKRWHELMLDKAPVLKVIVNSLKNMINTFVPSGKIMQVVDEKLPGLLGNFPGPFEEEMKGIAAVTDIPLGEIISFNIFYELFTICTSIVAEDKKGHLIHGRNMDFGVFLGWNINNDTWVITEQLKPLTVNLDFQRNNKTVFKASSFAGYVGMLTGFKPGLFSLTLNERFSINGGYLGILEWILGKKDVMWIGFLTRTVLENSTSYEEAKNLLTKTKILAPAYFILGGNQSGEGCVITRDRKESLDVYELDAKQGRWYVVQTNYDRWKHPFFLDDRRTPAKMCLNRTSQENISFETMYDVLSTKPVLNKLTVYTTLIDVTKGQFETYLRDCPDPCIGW
Procedure, shortened: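 Enzyme source was lysate from cells overexpressing acid ceramidase, 10 µg protein per reaction. Compounds were preincubated 1 h at RT in 25 mM NaAc, 100 mM NaCl, pH 4.5.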

solubility [1] [µg/mL] | IC50 [2] [nM] | Compound
39 (≈ 98.6 µM) | < 200 | Cc1cn(C(=O)NCC#CCc2ccccc2)c(OCCN2CCN(C)CC2)n1 [Example 201, 4-Methyl-2-(2-(4-methylpiperazin-1-yl)ethoxy)-N-(4-phenylbut-2-ynyl)-1H-imidazole-1-carboxamide]
7 (≈ 15.8 µM) | < 200 | CN1CCN(CCOc2nc(-c3ccccc3)cn2C(=O)NCC#Cc2ccccc2)CC1 [Example 202]
30 (≈ 69.2 µM) | < 200 | Cc1cn(C(=O)NCc2ccc(-c3ccccc3)cc2)c(OCCN2CCN(C)CC2)n1 [Example 203, N-(Biphenyl-4-ylmethyl)-4-methyl-2-(2-(4-methylpiperazin-1-yl)ethoxy)-1H-imidazole-1-carboxamide]
31 (≈ 92.1 µM) | < 200 | CN1CCC(c2cn(C(=O)NCCC#Cc3ccccc3)cn2)CC1 [Example 204, 4-(1-Methylpiperidin-4-yl)-N-(4-phenylbut-3-yn-1-yl)-1H-imidazole-1-carboxamide]
